Values after ≈ are worked out from the molar mass of the structure shown. Like-named read-outs stand apart in the source and are kept apart here.

The test system of data set [1] is SCID mice injected with CD45RBhigh cells. As to the kind of experiment: Adoptive transfer in mice (T cell driven model of colonic inflammation; assay (v)). The data set is classed as in vivo. The settings on record: for % Inhibition (of induction window between naïve and vehicle animals, colon weight:length) / Colon weight:length: 3 mg/kg BID oral gavage, day 14 to day 49 (Reference Compound A lowered to 0.6 mg/kg on day 27). How it is done:
On Study day 0, female Balb/C mice are terminated and spleens obtained for CD45RB^high cell isolation (Using SCID IBD cell Separation protocol). Approximately 4×10^5 cells/mL CD45RB^high cells are then injected intraperitoneally (100 μL/mouse) into female SCID animals. On study day 14, mice are weighed and random/zed into treatment groups based on body weight. On Day 14, compounds are administered BID, via oral gavage, in 5% polyoxyethylene 40 stearate in 20 mM pH 7.8 aqueous phosphate buffer in a dose volume of 5 mL/kg. Treatment continues until study day 49, at which point the animals are necropsied 4 hours after the morning administration. The colon length and weight are recorded and used as a secondary endpoint in the study as a measurement of colon oedema. The colon is then divided into six cross-sections, four of which are used for histopathology scoring (primary endpoint) and two are homogenised for cytokine analysis. Data shown is the % inhibition of the induction window between naïve animals and vehicle animals, where higher inhibition implies closer to the non-diseased, naïve, phenotype.

A short description of data set [2]: Solubility in fasted-state simulated colonic fluid (FaSSCoF) at pH 6.5. The data set is classed as physicochemical. Particulars: pH 6.5, 25° C.; for solubility thermodynamic at 24 h: fasted-state simulated colonic fluid (FaSSCoF), 25 °C, pH 6.5, fassgf or other biorelevant, thermodynamic from solid. As for the experimental part: The solubilities of compounds of the invention in FaSSCoF at pH 6.5 are determined using a modification of a previously-reported procedure (Vertzoni, M., et al. Pharm. Res. 2010, 27, 2187-2196). In place of the bile salt extract employed in the original procedure (which extract is no longer available), the modified procedure uses a mixture of sodium taurocholate (0.15 g), glycocholic acid (0.15 g), ursodeoxycholic acid (0.05 g), cholic acid (0.05 g), and glycodeoxycholic acid (0.05 g). These five bile acids are ground together with a mortar and pestle to produce a fine white powder that is incorporated into the FaSSCoF, as outlined below.
FaSSCoF medium: Tris(hydroxymethyl)aminomethane (Tris; 0.275 g) and maleic acid (0.44 g) are dissolved in water (35 mL) to give a solution whose pH is adjusted to 6.5 by treatment with 0.5M NaOH (ca. 12 mL). The solution is then made up to 50 mL with water. A portion of this Tris/maleate buffer solution (ca. 25 mL) is added to a 0.5 L round-bottomed flask, before being treated with 0.00565 g of the bile acid mixture described above. Solutions of phosphatidylcholine (0.0111 g) in DCM (0.15 mL) and palmitic acid (0.0013 g) in DCM (0.15 mL) are added, then the organic solvent is evaporated off under reduced pressure at 40° C. until a clear solution, with no perceptible DCM odour, is achieved. The volume of the evaporated solution is adjusted to 50 mL by addition of the remainder of Tris/maleate buffer, then BSA (0.115 g) is added, before being dissolved by gentle agitation.
Solubility Determination: Test compounds are suspended in the pH 6.5 FaSSCoF medium to give a maximum final concentration of 2-10 mg/mL. The suspensions are equilibrated at 25° C. for 24 h, before being filtered through a glass fibre C filter. The filtrates are then diluted as appropriate for injection and quantification by HPLC with reference to a standard. Different volumes of the standard, diluted and undiluted sample solutions are injected and the solubilities are calculated using the peak areas determined by integration of the peak found at the same retention time as the principal peak in the standard injection.

Data set [3] can be described thus: Microcentrifuge dissolution test 2): direct dosing into intestinal media containing simulated bile-salt micelles (IB-SIF). The data set is classed as physicochemical. Particulars: for Concentration, IB Timepoint 0 min / Concentration, IB Timepoint 4 min / Concentration, IB Timepoint 10 min / Concentration, IB Timepoint 20 min / Concentration, IB Timepoint 40 min / Concentration, IB Timepoint 90 min / Concentration, IB Timepoint 1,200 min / Additional concentration, UCF Timepoint 90 min: IB-SIF; for Concentration, IB Timepoint 0 min: pH 6.5, 0 min; for Concentration, IB Timepoint 4 min: pH 6.5, 4 min; for Concentration, IB Timepoint 10 min: pH 6.5, 10 min; for Concentration, IB Timepoint 20 min: pH 6.5, 20 min; for Concentration, IB Timepoint 40 min: pH 6.5, 40 min; for Concentration, IB Timepoint 90 min: pH 6.5, 90 min; for Concentration, IB Timepoint 1,200 min: pH 6.5, 1,200 min; for Additional concentration, UCF Timepoint 90 min / Additional concentration, UCF Timepoint 1,200 min: after ultracentrifugation (free drug + drug in micelles); for Additional concentration, UCF Timepoint 1,200 min: IB-SIF, 1,200 min. As for the experimental part: In vitro non-sink dissolution performance of the Compound of Example 3 was evaluated alongside Reference Compounds A and B employing microcentrifuge dissolution tests in which samples were either 1) transferred from intestinal buffer (IB) to colonic buffer (CB) or 2) dosed directly into intestinal media containing simulated bile-salt micelles (IB-SIF). Dissolution performance of the compounds at various timepoints was determined by centrifugation and analysis of the supernatant concentrations by off-line reverse-phase HPLC analysis.
Test compounds (0.45 mg±0.05 mg) were weighed into a microcentrifuge tube then 1.800 mL of IB-SIF receptor solution—prepared previously by dissolution of 0.250 g SIF powder (Biorelevant.com) in 50 mL of pH 6.5 PBS warmed to 37° C.—was added. A timer was started and the sample tubes were vortexed at the maximum setting for 1 minute. When the timer read 2, 8, 18, 38, 88 and 1,198 min—corresponding to the 4, 10, 20, 40, 90 and 1,200 min timepoints, respectively—the sample tubes were centrifuged for 1 min at 15,800 RCF. Then, at each timepoint, the supernatant (50 μL) was added to diluent {250 μL of 75/25 THF/Water (v/v)} and the compound concentrations were measured by off-line HPLC analysis (Table 7a). To determine the concentration of free drug+drug in micelles, the HPLC samples for the 90 and 1,200 min timepoints were additionally centrifuged for 8 min at 80,000 rpm at 37° C. in an ultracentrifuge (UCF), then the supernatant (50 μL) was added to diluent {250 PL of 75/25 THF/Water (v/v)} and the compound concentrations were measured by off-line HPLC analysis (Table 7b).

Data set [4] is described as follows: Microcentrifuge dissolution test 1): transfer from intestinal buffer (IB) to colonic buffer (CB). Particulars: PBS pH 6.5, 37° C. Type of data set: physicochemical.
Where [5] appears, read: Run 1, read-out: pH 6.5 FaSSCoF Solubility Run 1.
[6] abbreviates: Run 2, read-out: pH 6.5 FaSSCoF Solubility Run 2.

For `COc1cc(Nc2cc(Oc3ccc(NC(=O)Nc4cc(C(C)(C)C)cc(NS(C)(=O)=O)c4OC)c4ccccc34)ccn2)cc(OCCOCCOCC(=O)O)c1` [Example 3], in data set [1], the “% Inhibition (of induction window between naïve and vehicle animals, colon weight:length)” value (from here on “% Inhibition”) worked out at 49%; the “Colon weight:length” value is recorded as 0.032 ± 0.004. For the same compound, the “Activity compared to the two Reference Compounds (colon weight to length ratio)” value in data set [1] (simple aqueous-based vehicle) was “superior activity”. Besides, the solubility thermodynamic at 24 h in data set [2] (setting [5]) is 280 µg/mL (≈ 342 µM). Further, the solubility thermodynamic at 24 h in data set [2] (setting [6]) was 200 µg/mL (≈ 245 µM). Further, in data set [3], the “Concentration, IB Timepoint 0 min” value was 0 ng/mL; the “Concentration, IB Timepoint 4 min” value was 255.7 µg/mL; the “Concentration, IB Timepoint 10 min” value is 255.9 µg/mL; the “Concentration, IB Timepoint 20 min” value is 251.7 µg/mL. In data set [3], the “Concentration, IB Timepoint 40 min” value is 249.2 µg/mL; the “Concentration, IB Timepoint 90 min” value is 253.5 µg/mL; the “Concentration, IB Timepoint 1,200 min” value is 239.0 µg/mL; the “Additional concentration, UCF Timepoint 90 min” value was 229.4 µg/mL. Further, the “Additional concentration, UCF Timepoint 1,200 min” value in data set [3] was 169.9 µg/mL. Moreover, the “Concentration, IB Timepoint −30 min” value in data set [4] was 0 ng/mL.
For `COc1cc(Nc2nccc(Oc3ccc(NC(=O)Nc4cc(C(C)(C)C)cc(NS(C)(=O)=O)c4OC)c4ccccc34)n2)cc(OCCOCCOCCC(=O)O)c1` [Reference Compound A, 3-(2-(2-(3-((4-((4-(3-(5-(tert-butyl)-2-methoxy-3-(methylsulfonamido)phenyl)ureido)naphthalen-1-yl)oxy)-pyrimidin-2-yl)amino)-5-methoxyphenoxy)ethoxy)ethoxy)propanoic acid], in data set [1], the “% Inhibition” value is reported as −14%; the “Colon weight:length” value was determined as 0.047 ± 0.007. In data set [2] (24 h, Run 1), the “pH 6.5 FaSSCoF Solubility Run 1” value is reported as 0.007 mg/mL. In addition, the “pH 6.5 FaSSCoF Solubility Run 2” value in data set [2] (24 h, Run 2) is recorded as 0.007 mg/mL. Besides, in data set [3], the “Concentration, IB Timepoint 0 min” value is 0 ng/mL; the “Concentration, IB Timepoint 4 min” value was 39.8 µg/mL; the “Concentration, IB Timepoint 10 min” value is 63.4 µg/mL; the “Concentration, IB Timepoint 20 min” value was 83.5 µg/mL. Also, in data set [3], the “Concentration, IB Timepoint 40 min” value is 96.5 µg/mL; the “Concentration, IB Timepoint 90 min” value was 99.9 µg/mL; the “Concentration, IB Timepoint 1,200 min” value was 101.0 µg/mL; the “Additional concentration, UCF Timepoint 90 min” value was 87.0 µg/mL. Also, the “Additional concentration, UCF Timepoint 1,200 min” value in data set [3] is 88.8 µg/mL. The “Concentration, IB Timepoint −30 min” value in data set [4] turned out to be 0 ng/mL.
Consider `C#Cc1cc(Nc2nccc(Oc3ccc(NC(=O)Nc4cc(C(C)(C)C)nn4-c4ccc(C)cc4)c4ccccc34)n2)cc(C(=O)NCCOCCOCCOC)c1` [Reference Compound B, 3-((4-((4-(3-(3-(tert-butyl)-1-(p-tolyl)-1H-pyrazol-5-yl)ureido)naphthalen-1-yl)oxy)pyrimidin-2-yl)amino)-5-ethynyl-N-(2-(2-(2-methoxyethoxy)ethoxy)ethyl)benzamide], for which, in data set [1], the “% Inhibition” value was determined as 11%; the “Colon weight:length” value is given as 0.041 ± 0.005. Further, the solubility thermodynamic at 24 h in data set [2] (setting [5]) is less than 1 µg/mL. Also, in data set [2] (setting [6]), the solubility thermodynamic at 24 h was less than 1 µg/mL. Also, in data set [3], the “Concentration, IB Timepoint 0 min” value is 0 ng/mL; the “Concentration, IB Timepoint 4 min” value was 1.1 µg/mL; the “Concentration, IB Timepoint 10 min” value was 0.9 µg/mL; the “Concentration, IB Timepoint 20 min” value is 1.3 µg/mL. In addition, in data set [3], the “Concentration, IB Timepoint 40 min” value was 1.0 µg/mL; the “Concentration, IB Timepoint 90 min” value was 0.7 µg/mL; the “Concentration, IB Timepoint 1,200 min” value was 3.0 µg/mL; the “Additional concentration, UCF Timepoint 90 min” value was 0.7 µg/mL. Further, in data set [3], the “Additional concentration, UCF Timepoint 1,200 min” value is 2.9 µg/mL. Further, in data set [4], the “Concentration, IB Timepoint −30 min” value worked out at 0 ng/mL.

The values are drawn from US10072034B2, “Kinase inhibitors” (Respivert Limited, priority 2016, dated 2018).
